From patent US20150105252A1, “SUBSTITUTED PYRAZOLES AS HERBICIDES” (E I DU PONT DE NEMOURS AND COMPANY, priority 2013, published 2015)

Tests used:
[1] = system: barnyardgrass; test: Test A preemergence; type: in vivo, Echinochloa crus-galli; conditions: preemergence
In short: (§1)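 Seeds were sown in a loam soil–sand blend and given a directed soil spray preemergence; postemergence plants at 2–10 cm, one- to two-leaf stage, were sprayed with compound in non-phytotoxic solvent with surfactant. After about 10 days in a greenhouse, injury was visually rated against untreated controls (0 = no effect, 100 = complete control).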

[2] = system: kochia; test: Test A preemergence; type: in vivo, Kochia scoparia
Text: (§2) Seeds of plant species selected from barnyardgrass (Echinochloa crus-galli), kochia (Kochia scoparia), common ragweed (Ambrosia elation), Italian ryegrass (Lolium multiflorum), crabgrass, large (large crabgrass, Digitaria sanguinalis), foxtail, giant (giant foxtail, Setaria faberii), morningglory (Ipomoea spp.), pigweed (redroot pigweed, Amaranthus retroflexus), velvetleaf (Abutilon theophrasti), wheat (Triticum aestivum), and corn (Zea mays) were planted into a blend of loam soil and sand and treated preemergence with a directed soil spray using test chemicals formulated in a non-phytotoxic solvent mixture which included a surfactant.
(§3) At the same time, plants selected from these crop and weed species and also blackgrass (Alopecurus myosuroides), and galium (catchweed bedstraw, Galium aparine) were planted in pots containing the same blend of loam soil and sand and treated with postemergence applications of test chemicals formulated in the same manner. Plants ranged in height from 2 to 10 cm and were in the one- to two-leaf stage for the postemergence treatment. Treated plants and untreated controls were maintained in a greenhouse for approximately 10 days, after which time all treated plants were compared to untreated controls and visually evaluated for injury. Plant response ratings, summarized in Table A, are based on a 0 to 100 scale where 0 is no effect and 100 is complete control. A dash (-) response means no test result.

[3] = system: common ragweed; test: Test A preemergence; type: in vivo, Ambrosia elation
Text: as §2, §3

[4] = system: Italian ryegrass; test: Test A preemergence; type: in vivo, Lolium multiflorum
Text: as §2, §3

[5] = system: foxtail, giant; test: Test A preemergence; type: in vivo, Setaria faberii; conditions: preemergence
In short: as §1

[6] = system: pigweed; test: Test A preemergence; type: in vivo, Amaranthus retroflexus; conditions: preemergence
In short: as §1

[7] = system: barnyardgrass; test: Test A postemergence; type: in vivo, Echinochloa crus-galli
In short: as §1

[8] = system: kochia; test: Test A postemergence; type: in vivo, Kochia scoparia
Text: as §2, §3

[9] = system: common ragweed; test: Test A postemergence; type: in vivo, Ambrosia elation
Text: as §2, §3

[10] = system: Italian ryegrass; test: Test A postemergence; type: in vivo, Lolium multiflorum
Text: as §2, §3

[11] = system: foxtail, giant; test: Test A postemergence; type: in vivo, Setaria faberii
In short: as §1

[12] = system: pigweed; test: Test A postemergence; type: in vivo, Amaranthus retroflexus
In short: as §1

[13] = system: wheat; test: Test A postemergence; type: in vivo, Triticum aestivum
In short: as §1

[14] = system: corn; test: Test A postemergence; type: in vivo, Zea mays
In short: as §1

[15] = system: blackgrass; test: Test A postemergence; type: in vivo, Alopecurus myosuroides
Text: as §2, §3

[16] = system: galium; test: Test A postemergence; type: in vivo, Galium aparine
Text: as §2, §3

[17] = system: rice; test: Test B flood; type: in vivo, Oryza sativa; conditions: 250 g ai/ha, visual rating on 0 to 100 scale (0 no effect, 100 complete control), 13 to 15 days
In short: (§4)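 2-leaf plants; pots flooded 3 cm over soil; compound added to paddy water, depth kept constant. Greenhouse 13–15 d. Visual rating vs controls, 0–100 scale (100 = complete control); dash = no result.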

[18] = system: sedge, umbrella; test: Test B flood; type: in vivo, Cyperus difformis; conditions: 250 g ai/ha, visual rating on 0 to 100 scale (0 no effect, 100 complete control), 13 to 15 days
In short: as §4

[19] = system: ducksalad; test: Test B flood; type: in vivo, Heteranthera limosa; conditions: 250 g ai/ha, visual rating on 0 to 100 scale (0 no effect, 100 complete control), 13 to 15 days
In short: as §4

[20] = system: barnyardgrass; test: Test B flood; type: in vivo, Echinochloa crus-galli; conditions: 250 g ai/ha, visual rating on 0 to 100 scale (0 no effect, 100 complete control), 13 to 15 days
In short: as §4

[21] = system: crabgrass, large; test: Test A preemergence; type: in vivo, Digitaria sanguinalis; conditions: preemergence
In short: as §1

[22] = system: morningglory; test: Test A preemergence; type: in vivo, Ipomoea spp.; conditions: preemergence, 125 g ai/ha, visual injury approx. 10 days after treatment
In short: as §1

[23] = system: velvetleaf; test: Test A preemergence; type: in vivo, Abutilon theophrasti; conditions: preemergence, 125 g ai/ha, visual injury approx. 10 days after treatment
In short: as §1

[24] = system: wheat; test: Test A preemergence; type: in vivo, Triticum aestivum; conditions: preemergence, 125 g ai/ha, visual injury approx. 10 days after treatment
In short: as §1

[25] = system: corn; test: Test A preemergence; type: in vivo, Zea mays; conditions: preemergence
In short: as §1

[26] = system: crabgrass, large; test: Test A postemergence; type: in vivo, Digitaria sanguinalis
In short: as §1

[27] = system: morningglory; test: Test A postemergence; type: in vivo, Ipomoea spp.; conditions: Postemergence
In short: as §1

[28] = system: velvetleaf; test: Test A postemergence; type: in vivo, Abutilon theophrasti; conditions: Postemergence
In short: as §1

[29] = system: rice; test: Test C flooded paddy test; type: in vivo, Oryza sativa; conditions: Flood
In short: (§5)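 Pots were flooded to 3 cm above the soil surface at treatment, compound applied directly to the paddy water, and that depth held throughout. Plants were kept in a greenhouse for 13 to 15 days, then visually rated against untreated controls.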

[30] = system: sedge, umbrella; test: Test C flooded paddy test; type: in vivo, Cyperus difformis; conditions: Flood
In short: as §5

[31] = system: ducksalad; test: Test C flooded paddy test; type: in vivo, Heteranthera limosa; conditions: Flood
In short: as §5

[32] = system: barnyardgrass; test: Test C flooded paddy test; type: in vivo, Echinochloa crus-galli; conditions: Flood
In short: as §5

[33] = 125 g ai/ha, visual injury, 0 to 100 scale, approx. 10 days
[34] = 500 g ai/ha, visual injury after approx. 10 days, 0 to 100 scale (0 no effect, 100 complete control)
[35] = Postemergence, 500 g ai/ha, 0 to 100 scale (0 no effect, 100 complete control)
[36] = postemergence, 125 g ai/ha, about 10 days, visual rating on 0 to 100 scale (0 no effect, 100 complete control)
[37] = 125 g ai/ha, visual injury approx. 10 days after treatment
[38] = 125 g ai/ha, 0 to 100 scale, 0 no effect, 100 complete control
[39] = 500 g ai/ha, 0 to 100 scale (0 no effect, 100 complete control)
[40] = Postemergence, 125 g ai/ha, 0 to 100 scale, 0 no effect, 100 complete control
[41] = 31 g ai/ha, scale 0 to 100 (0 no effect, 100 complete control)
[42] = 62 g ai/ha, scale 0 to 100 (0 no effect, 100 complete control)
[43] = 125 g ai/ha, scale 0 to 100 (0 no effect, 100 complete control)

CCc1cc(C(=O)NC2CC2)nn1Cc1cc(C(F)(F)F)no1 [Compound 124]
Barnyardgrass plant response rating [1, 33]: 0 | Barnyardgrass plant response rating [1, 34]: 100 | Kochia plant response rating [2, 33]: 20 | Kochia plant response rating [2, 34]: 90 | Common Ragweed plant response rating [3, 33]: 10 | Common Ragweed plant response rating [3, 34]: 40 | Italian Ryegrass plant response rating [4, 33]: 0 | Italian Ryegrass plant response rating [4, 34]: 20 | Foxtail, Giant plant response rating [5, 33]: 20 | Foxtail, Giant plant response rating [5, 34]: 100 | Pigweed plant response rating [6, 33]: 20 | Pigweed plant response rating [6, 34]: 100 | Barnyardgrass plant response rating [7, 35]: 70 | Barnyardgrass plant response rating [7, 36]: 0 | Kochia plant response rating [8, 35]: 90 | Kochia plant response rating [8, 36]: 50 | Common Ragweed plant response rating [9, 35]: 30 | Common Ragweed plant response rating [9, 36]: 20 | Italian Ryegrass plant response rating [10, 35]: 30 | Italian Ryegrass plant response rating [10, 36]: 10 | Foxtail, Giant plant response rating [11, 35]: 90 | Foxtail, Giant plant response rating [11, 36]: 0 | Pigweed plant response rating [12, 35]: 100 | Pigweed plant response rating [12, 36]: 30 | Wheat plant response rating [13, 35]: 0 | Wheat plant response rating [13, 36]: 0 | Corn plant response rating [14, 35]: 40 | Corn plant response rating [14, 36]: 10 | Blackgrass plant response rating [15, 35]: 60 | Blackgrass plant response rating [15, 36]: 10 | Galium plant response rating [16, 35]: 80 | Galium plant response rating [16, 36]: 10 | Plant response rating, Rice [17]: 20 | Plant response rating, Sedge, Umbrella [18]: 20 | Plant response rating, Ducksalad [19]: 30 | Plant response rating, Barnyardgrass [20]: 10

CCc1cc(C(=O)NC)nn1Cc1ccnc(C(F)(F)F)c1 [Compound 204]
Barnyardgrass plant response rating (0 to 100 scale, 0 is no effect, 100 is complete control) [1, 37]: 0 | Barnyardgrass plant response rating [1, 34]: 80 | Crabgrass, Large plant response rating (0 to 100 scale) [21, 37]: 100 | Crabgrass, Large plant response rating [21, 34]: 100 | Foxtail, Giant plant response rating (0 to 100 scale) [5, 37]: 50 | Foxtail, Giant plant response rating [5, 34]: 100 | Morningglory plant response rating (0 to 100 scale) [22]: 30 | Pigweed plant response rating (0 to 100 scale) [6, 37]: 100 | Velvetleaf plant response rating (0 to 100 scale) [23]: 10 | Wheat plant response rating (0 to 100 scale) [24]: 0 | Corn plant response rating (0 to 100 scale) [25, 37]: 0 | Corn plant response rating [25, 34]: 10 | Barnyardgrass plant response rating [7, 35]: 50 | Barnyardgrass plant response rating [7, 36]: 10 | Crabgrass, Large plant response rating [26, 35]: 80 | Crabgrass, Large plant response rating [26, 36]: 10 | Foxtail, Giant plant response rating [11, 35]: 70 | Foxtail, Giant plant response rating [11, 36]: 10 | Morningglory plant response rating [27, 38]: 80 | Morningglory plant response rating [27, 39]: 90 | Pigweed plant response rating [12, 40]: 90 | Pigweed plant response rating [12, 35]: 90 | Velvetleaf plant response rating [28, 38]: 40 | Velvetleaf plant response rating [28, 39]: 50 | Wheat plant response rating [13, 40]: 0 | Wheat plant response rating [13, 35]: 10 | Corn plant response rating [14, 35]: 30 | Corn plant response rating [14, 36]: 10 | Plant response rating, Rice [17]: 0 | Plant response rating, Sedge, Umbrella [18]: 90 | Plant response rating, Ducksalad [19]: 95 | Plant response rating, Barnyardgrass [20]: 0 | Plant response rating, Rice [29, 41]: 0 | Plant response rating, Rice [29, 42]: 0 | Plant response rating, Rice [29, 43]: 0 | Plant response rating, Rice ([29]; 250 g ai/ha, scale 0 to 100): 0 | Plant response rating, Sedge, Umbrella [30, 41]: 0 | Plant response rating, Sedge, Umbrella [30, 42]: 60 | Plant response rating, Sedge, Umbrella [30, 43]: 80 | Plant response rating, Sedge, Umbrella ([30]; 250 g ai/ha, scale 0 to 100): 80 | Plant response rating, Ducksalad [31, 41]: 0 | Plant response rating, Ducksalad [31, 42]: 0 | Plant response rating, Ducksalad [31, 43]: 50 | Plant response rating, Ducksalad ([31]; 250 g ai/ha, scale 0 to 100): 90 | Plant response rating, Barnyardgrass [32, 41]: 0 | Plant response rating, Barnyardgrass [32, 42]: 0 | Plant response rating, Barnyardgrass [32, 43]: 0 | Plant response rating, Barnyardgrass ([32]; 250 g ai/ha, scale 0 to 100): 0
